The results in this text go back to paper PMC11597048, “M2e-Derived Peptidyl and Peptide Amphiphile Micelles as Novel Influenza Vaccines” (Pharmaceuticals, 2024).

The nature of data set [1]: Transmission electron microscopy of micelles. The class given is physicochemical. The settings on record: 20 μM peptide or PA with or without 2.22 μM Pam2CSK4 (90/10) in PBS, Nano-W negative stain. The protocol: Solutions of 20 μM peptide or PA with or without 2.22 μM Pam2CSK4 were prepared in PBS from which 5 μL was pipetted onto a carbon-coated copper transmission electron microscopy (TEM) grid and incubated for 3–5 min before excess solution was wicked away using filter paper. Then, 5 μL Nano-W (2% methylamine tungstate) was pipetted on the grid and incubated for 3–5 min before being removed by wicking. Grids were imaged using a JEOL JEM-1400 Transmission Electron Microscope (Tokyo, Japan) at 15,000× and 25,000× magnification. Micrographs of peptide or PA were compared against reference micrographs of Nano-W with or without PBS to ensure proper identification of micellar structures.

The test system of data set [2] is bone marrow-derived dendritic cells (BMDCs). Nature of the data set: BMDC cytokine secretion (sandwich ELISA of supernatant). Format: cell-based, BALB/c mice. The note with it: 24 h treatment, 0.2 μM Pam2CSK4, supernatant ELISA. How it is done:
Bone marrow was harvested from the femurs and tibias of 4-month-old BALB/c mice and red blood cells were lysed using ammonium-chloride-potassium (ACK) lysing buffer. Bone marrow cells were cultured in complete RPMI media (i.e., 10% FBS, 100 U/mL penicillin, 100 μg/mL streptomycin, and 50 μM β-mercaptoethanol) with 20 ng/mL granulocyte-macrophage colony-stimulating factor (GM-CSF) to promote differentiation into bone marrow-derived dendritic cells (BMDCs). After 10 days, BMDCs were plated in untreated 24-well plates and cultured with peptide or PA for 24 h. Supernatants were collected and stored at −20 °C for later use. BMDCs were harvested and processed for flow cytometry analysis. More specifically, cells were removed from the plate, blocked with Trustain FcX anti-mouse CD16/32 antibody (BioLegend), then stained with phycoerythrin-Cyaninine7 (PE-Cy7) anti-mouse CD11c (BioLegend), fluorescein isothiocyanate (FITC) anti-mouse CD40 (BioLegend), and allophycocyanin (APC) anti-mouse MHC II (BioLegend) before being fixed with 4% para-formaldehyde. Cells were analyzed on a BD LSR Fortessa Flow Cytometer (Franklin Lakes, NJ, USA) within 48 h after fixation. Events were gated according to the strategy shown in Figure S2, with viable samples having a “valid cells” gate of at least 45% of the total events. […]
In general terms: In an ELISA, binding on a coated surface is turned into a signal by an enzyme label.

On to Pam2CSK4, for which the “Micelle morphology (TEM)” value in data set [1] is reported as “mostly small spherical micelles”. Moreover, in data set [2], the “IL-12/IL-23 (p40) secretion” value is reported as “higher production” and the TNF-α secretion entry is listed as “higher production”.
